Data reported in article PMC11938014, “Development and Application of Small Molecule–Peptide Conjugates as Cathepsin K-Specific Covalent Irreversible Inhibitors in Human Osteoclast and Lung Cancer” (JACS Au, 2025).
Where two headings read alike, the source gives them in different places.

Tests used:
[1] = target: T1, Recombinant human cathepsin B (Homo sapiens, UniProt P07858); assay: Recombinant cathepsin inhibition, gel-based competition with GB123 probe; type: biochemical; details: Table S2; three independent competition gel-based experiments; read-out: CTSB (IC50)
T1 construct: made in house
Procedure: (§1) In-gel fluorescence analysis was used to detect the residual activity of the cathepsins by applying pan-cathepsin probe GB123 to detect the stable enzyme–probe complex. This approach is used for testing inhibition and selectivity.[37],[41]
(§2) Recombinant human cathepsin L (0.5 μM), cathepsin B (0.5 μM), cathepsin K (0.5 μM), and cathepsin S (0.5 μM) were pretreated with different concentrations of inhibitors (GD compounds, odanacatib) for 1 h in reaction buffer (50 mM acetate, 2 mM dithiothreitol (DTT), and 5 mM MgCl2, pH 5.5) at 37 °C. GB123 (1 μM) was added and incubated with samples for 60 min at 37 °C.[37],[41] The reaction was stopped by the addition of sample buffer 4× (40% glycerol, 0.2 M Tris/HCl pH 6.8, 20% β-mercaptoethanol, 12% SDS, and 0.4 mg/mL bromophenol blue). Samples were then boiled, separated on a 12.5% SDS gel, and scanned for fluorescence by a Typhoon scanner FLA 9500 at excitation and emission wavelengths of 635 and 670 nm for GB123.
(§3) graphs were generated in GraphPad Prism software.

[2] = target: T2, Recombinant human cathepsin K (Homo sapiens, UniProt P43235); assay: as above; type: biochemical; details: for concentration at which significant CTSK inhibition starts: Figure S5, recombinant CTSK
T2 construct: made in house
T2 sequence (P43235 115-329): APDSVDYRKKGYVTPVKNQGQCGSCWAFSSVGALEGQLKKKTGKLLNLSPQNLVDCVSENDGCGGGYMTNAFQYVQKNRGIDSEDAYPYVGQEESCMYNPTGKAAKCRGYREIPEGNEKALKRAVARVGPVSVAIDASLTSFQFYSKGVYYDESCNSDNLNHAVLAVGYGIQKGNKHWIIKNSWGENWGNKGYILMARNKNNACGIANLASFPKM
Procedure: as §1, §2, §3

[3] = target: T3, Recombinant human cathepsin L (Homo sapiens, UniProt P07711); assay: as above; type: biochemical; details: Table S2; three independent competition gel-based experiments; read-out: CTSL (IC50)
T3 construct: made in house
Procedure: as §1, §2, §3

[4] = test system: human osteoclasts; assay: Cell viability assay (methylene blue); type: cell-based; details: different concentrations, 48 h
Procedure: […]
Cell viability assay: U2-OS, U-87 MG, or enriched monocyte cells were grown at 37 0C with 5% of CO2 in the respective medium as described previously. Cells were seeded (1500 cells/well in 96 wells plate) one day before the incubation with indicated inhibitor s at various concentrations. After 48 h, cells were fixed, and viability was measured by quantita tive colorimetric assay using methylene blue according to the procedure reported by Ben -Bassat et al.9 The data were expressed as a percentage of control; data represent the mean of 2 experiments with triplicates for each treatment (± standard deviation).
Figure S10. Cell viability assay. a) U2-OS and, b) U-87 MG were incubated with the different concentrations of indicated inhibitors. After a 48 h incubation cells were fixed, and viability was measured by methylene blue assay.The data were expressed as a percentage of control; data represent the mean of 2 experiments with triplicates for each treatment (± SD). Statistical differences were evaluated by two -tailed Student’s t -test from two independent experiments.
Student’s t -test was non-significant except for samples indicated with *, P <0.05 and **, P <0.01. (c) Human osteoclasts were incubated with the different concentrations of indicated inhibitors. After a 48 h incubation cells were fixed, and viability was measured by methylene […]
(also on this page, place not known: t-test non -significant t-test 0 20 40 60 80 100 120 (0.5 µM)(5 µM)(1 µM)(5 µM)(1 µM) (0.5 µM) ODNGD38GD38GD38GD20GD20GD20 (0.5 µM) Cell viability (% of control) Concentration of compound) […]
(1 picture or pasted object on this page, not shown here)

[5] = target: T4, endogenous matured CTSK in intact U2-OS and U-87 MG cells (Homo sapiens, UniProt P43235); assay: Competition assay in intact cells, GB123 labeling; type: cell-based; details: escalating doses
T4 construct: endogenous in cells; host or cells: U2-OS and U-87 MG
T4 sequence (P43235 115-329): T2 sequence (P43235 115-329)
Procedure: Two cell lines, human osteosarcoma U2-OS and human glioblastoma U-87 MG, that naturally express CTSK along with other lysosomal cathepsins, were chosen to evaluate the inhibitors’ potency and selectivity.[43],[44] First, the intact cells were incubated for various durations with escalating doses of the inhibitors, and the ODN was used as a control. The residual cathepsin activity in the cells was detected by adding a pan-cathepsin ABP, GB123, after which the cells were lysed. The probe-labeled enzymes were then separated and visualized using fluorescent SDS-PAGE (Figures 5a,b and S7).[45] In both cells, the activity of several cathepsins was detected, while the fluorescent band at approximately 25 kDa was correlated to CTSK by immunoblotting (shown below in Figure 5a, b). The identity of each labeled band was detected by immunoblotting (Figure S7).[45] A selective dose-dependent suppression of CTSK activity was obtained in a range of inhibitor concentrations.
Figure 5 Direct inhibition of endogenous matured CTSK in intact U2-OS and U-87 MG cells. (a) Intact U2-OS cells were treated with DMSO, ODN, or increasing concentrations of the inhibitors GD20 or GD38 in their culture medium for 2 h. Cells were then treated with GB123 (5 μM) for 2 h, lysed, and separated by SDS-PAGE, followed by fluorescent scanning of the gel using a Typhoon scanner at 635/670 nm. An immunoblot of CTSK of the same gel is presented below. Different cathepsins are marked by colored arrowheads; a red arrowhead marks mature CTSK. s. ch. = single chain, h. ch. = heavy chain.[45] (b) Intact U-87 MG cells were treated with the inhibitor, followed by GB123, as described in panel (a).
U-87 MG and U2-0S cells (5 × 10^5 cells/well) were seeded in a six-well plate 1 day before treatment. […] Proteins were quantified by bicinchoninic acid (BCA, Thermo Scientific); an equal quantity of proteins was prepared for all samples, and after the addition of sample buffer, the lysates were boiled for 10 min, centrifuged, and separated by 12.5% SDS-PAGE. […]

[6] = Figure 4b IC50 curves, recombinant CTSK 0.5 μM, read-out: IC50 for inhibiting CTSK activity

T3 sequence (P07711 114-333): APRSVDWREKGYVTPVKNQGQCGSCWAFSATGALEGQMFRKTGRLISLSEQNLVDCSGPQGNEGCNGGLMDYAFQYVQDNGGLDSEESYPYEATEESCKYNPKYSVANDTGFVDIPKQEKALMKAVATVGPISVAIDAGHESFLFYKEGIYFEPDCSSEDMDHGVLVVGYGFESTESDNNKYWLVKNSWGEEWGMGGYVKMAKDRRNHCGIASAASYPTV

SMILES	IC50 [1]	IC50 [2, 6]	concentration at which significant CTSK inhibition starts [2]	IC50 [3]	cell viability (% of control) vs control [4]	inhibition of CTSK and selectivity over other cathepsins in intact cells, in words [5]	IC50 ([2]; Table S2, value in nM, read-out: CTSK (IC50))	IC50 ([2]; Table S2, three independent competition gel-based experiments, read-out: CTSK (IC50))
CC(C)C[C@H](N[C@@H](c1ccc(-c2ccc(S(C)(=O)=O)cc2)cc1)C(F)(F)F)C(=O)NCC(=O)COC(=O)[C@@H]1CCCN1C(=O)[C@H](CC(C)C)NC(=O)OCC1c2ccccc2-c2ccccc21 [GD20]	> 10000 nM	460 ± 77 nM	0.25 µM	> 10000 nM	no significant differences	very selective at all concentrations tested		
CC(C)(F)C[C@H](N[C@@H](c1ccc(-c2ccc(S(C)(=O)=O)cc2)cc1)C(F)(F)F)C(=O)NC1(C#N)CC1 [ODN, odanacatib, reference compound]	> 10000 nM			> 10000 nM	no significant differences	could not detect	350 ± 0.05 nM	
CC(C)C[C@H](N[C@@H](c1ccc(-c2ccc(S(C)(=O)=O)cc2)cc1)C(F)(F)F)C(=O)NCC(=O)COC(=O)[C@@H]1CCCN1C(=O)[C@H](CCC(N)=O)NC(=O)OCC1c2ccccc2-c2ccccc21 [GD38]	> 10000 nM	210 ± 27 nM	0.062 µM	> 10000 nM	no significant differences	slightly reduced the activity of other cathepsins at high concentrations and longer incubation times		200 ± 20 nM
